Results on 10 molecules are retold here after patent US4176182A, “Sulfamoyl derivatives of 8-β-aminomethylergoline” (priority 1976, dated 1979).

One data set in a line: LD50 in the mouse, iv. Particulars: in vivo.
For data set [1], the system named is seminal vesicle of guinea pig. Kind of data set: adrenolytic activity, seminal vesicle of guinea pig, in vitro. In kind it is cell-based. Particulars: for EC50: Cavia porcellus, adrenolytic activity, in vitro; for times less active as regards the adrenolytic activity: vs comparison compound (dihydroergocristine as alpha-blocking agent).
Data set [2] relates to 5-hydroxytryptamine (serotonin) induced contractions, uterus of female rat. The data set is described as follows: inhibition of 5-hydroxytryptamine (serotonin)-induced contractions in uterus of female rat, in vitro. Particulars: for EC50: 5-HT-induced contractions, rat treated with estradiol dipropionate 20 hours before; for times more active than the comparison compound as to the anti-5 HT activity: comparison compound methergoline. The data set is classed as cell-based. The method, then: (§1) These novel compounds show anti-serotonin activity both peripherally and on the central nervous system. This activity had been tested "in vitro" through the inhibition of the contractions as induced by 5-hydroxytryptamine (serotonin) (5 HT) in the uterus of a female rat, which 20 hours before the test had been treated with estradiol dipropionate (see Ersparmer, Archiv. int. Pharmacodyn. 93, 293, 1953), and "in vivo" on the clones induced by tryptamine (40 mg/kg i.v.) in the rat (S. J. Corne et al., Brit. J. Pharmacol., 20, 106, 1963).

The subject of data set [3] is clones induced by tryptamine. The data set is described as follows: clones induced by tryptamine in the rat, in vivo. The conditions noted are these: sc, read-out: Clones induced by Tryptamine ED50. The method, then: as §1
Data set [4] deals with ileus of guinea pig (BaCl2). Kind of data set: spasmolytic activity, ileus of guinea pig, BaCl2, in vitro. The data set is classed as cell-based. The conditions noted are these: for EC50: Cavia porcellus, spasmolytic activity, in vitro, no quantity or unit printed in this column head; for times less active as regards the spasmolytic activity: vs comparison compound (papaverine as spasmolytic agent).

Molecules are shown by their SMILES. In brackets after ≈: the same amount, converted by molar mass. Like-named read-outs stand apart in the source and are kept apart here.

For orientation: LD50 means the dose at which mortality reaches 50%. The low end stands for a more toxic substance, the high end for a less toxic substance. The EC50 is the midpoint of the concentration-response curve. By ED50 is commonly meant the dose that gives a 50% effect, or the effect in half of the subjects. Take `CN1C[C@H](CNS(=O)(=O)N2CCCCCC2)C=C2c3cccc4[nH]cc(c34)C[C@H]21` [Compound 7, 1-(1H-hexahydroazepine)-3-(6-methyl-8β-didehydroergolenyl-methyl)-sulfonamide]: the LD50 in the data set “LD50 in the mouse, iv” was 50.2 mg/kg. The EC50 in data set [1] worked out at 0.8 µg/mL (≈ 1.93 µM); in data set [2], 7 ng/mL (≈ 0.0169 µM); in data set [4] it was 5 µg/mL (≈ 12.1 µM). Also, the median effective dose (ED50) in data set [3] (rat, tryptamine 40 mg/kg i.v.) came to 2.47 mg/kg.

In the case of `COc1ccc(Cc2nccc3cc(OC)c(OC)cc23)cc1OC` [Papaverin, papaverine, reference compound], the LD50 in the data set “LD50 in the mouse, iv” is 38 mg/kg. Besides, the response in data set [4] was half-maximal at 8.9 µg/mL (≈ 26.2 µM) (EC50).

With `CN1C[C@H](CNS(=O)(=O)N2CCCC2)C=C2c3cccc4c3c(cn4C)C[C@H]21` [Compound 11, 1-(1,6-dimethyl-8β-didehydroergolenylmethyl)-3-pyrrolidine-sulfonamide], in the data set “LD50 in the mouse, iv”, the LD50 came to 22.3 mg/kg. For the same molecule, in data set [1], a half-maximal effect (EC50) was put at 1 µg/mL (≈ 2.5 µM) and the “times less active as regards the adrenolytic activity” value worked out at 25 times. In data set [2], a half-maximal effect (EC50) was put at 0.2 ng/mL (≈ 0.000499 µM) and the “times more active than the comparison compound as to the anti-5 HT activity” value is listed as 25 times. In addition, the ED50 in data set [3] (rat, tryptamine 40 mg/kg i.v.) stood at 0.016 mg/kg. In data set [4], it took 15 µg/mL (≈ 37.4 µM) to reach a half-maximal effect (EC50) and the “times less active as regards the spasmolytic activity” value was found to be 2 times.

In “LD50 in the mouse, iv”, `CN1C[C@H](CNS(=O)(=O)N2CCOCC2)C[C@@H]2c3cccc4[nH]cc(c34)C[C@H]21` [Compound 10] yielded an LD50 of 51 mg/kg. Besides, the EC50 in data set [1] stood at 0.07 µg/mL (≈ 0.173 µM); in data set [2], 5 ng/mL (≈ 0.0124 µM); in data set [4] it was 5 µg/mL (≈ 12.4 µM). Further, the 50% effective dose (ED50) in data set [3] (rat, tryptamine 40 mg/kg i.v.) turned out to be 7.2 mg/kg.

`CN1C[C@H](CNS(=O)(=O)N2CCCCC2)C=C2c3cccc4[nH]cc(c34)C[C@H]21` [Compound 5, 1-(6-methyl-8β-didehydroergolenylmethyl)-3-piperidino-sulfonamide]: the LD50 in “LD50 in the mouse, iv” was determined as 45 mg/kg. Also, the EC50 in data set [1] stood at 0.2 µg/mL (≈ 0.499 µM); in data set [2] it was 3 ng/mL (≈ 0.00749 µM); in data set [4], 7.5 µg/mL (≈ 18.7 µM). Further, in data set [3] (rat, tryptamine 40 mg/kg i.v.), the 50% effective dose (ED50) amounted to 0.51 mg/kg.

Take `CN1C[C@H](CNC(=O)OCc2ccccc2)C[C@@H]2c3cccc4c3c(cn4C)C[C@H]21` [Methergoline, methergoline, reference compound]: the LD50 in “LD50 in the mouse, iv” amounted to 21.2 mg/kg. Besides, the EC50 in data set [2] amounted to 5 ng/mL (≈ 0.0124 µM). Besides, the ED50 in data set [3] (Rattus norvegicus) came to 0.062 mg/kg.

For the molecule `CC(C)[C@@]1(NC(=O)[C@@H]2C[C@@H]3c4cccc5[nH]cc(c45)C[C@H]3N(C)C2)O[C@@]2(O)[C@@H]3CCCN3C(=O)[C@H](Cc3ccccc3)N2C1=O` [Dihydroergocristine methansulfonate, dihydroergocristine, reference compound], the LD50 in the data set “LD50 in the mouse, iv” is 70 mg/kg. Moreover, the EC50 in data set [1] was found to be 0.008 µg/mL.

Consider `CN1C[C@H](CNS(=O)(=O)N2CCOCC2)C=C2c3cccc4[nH]cc(c34)C[C@H]21` [Compound 9, 1-(6-methyl-8β-didehydroergolenylmethyl)-3-morpholino-sulfonamide], for which the LD50 in “LD50 in the mouse, iv” turned out to be 34.5 mg/kg. Also, the EC50 in data set [1] was 0.1 µg/mL (≈ 0.248 µM); in data set [2] it was 5 ng/mL (≈ 0.0124 µM); in data set [4], 15 µg/mL (≈ 37.3 µM). Moreover, the ED50 in data set [3] (rat, tryptamine 40 mg/kg i.v.) amounted to 4.25 mg/kg.

Take `CN1C[C@H](CNS(=O)(=O)N(C)C)C[C@@H]2c3cccc4[nH]cc(c34)C[C@H]21` [Compound 2]: the LD50 in the data set “LD50 in the mouse, iv” was determined as 22.5 mg/kg. Besides, the EC50 is 1.5 µg/mL (≈ 4.14 µM) in data set [1], 5 ng/mL (≈ 0.0138 µM) in data set [2] and 10 µg/mL (≈ 27.6 µM) in data set [4]. In addition, the ED50 in data set [3] (rat, tryptamine 40 mg/kg i.v.) was 10 mg/kg.

For `CN1C[C@H](CNS(=O)(=O)N2CCCCC2)C=C2c3cccc4c3c(cn4C)C[C@H]21` [Compound 12, 1-(1,6-dimethyl-8β-didehydroergolenylmethyl)-3-piperidino-sulfonamide], the LD50 in “LD50 in the mouse, iv” came to 20 mg/kg. Moreover, in data set [1], the EC50 came out at 1 µg/mL (≈ 2.41 µM) and the “times less active as regards the adrenolytic activity” value is listed as 25 times. In data set [2], the EC50 stood at 0.02 ng/mL (≈ 4.82e-05 µM) and the “times more active than the comparison compound as to the anti-5 HT activity” value is reported as 250 times. The ED50 in data set [3] (rat, tryptamine 40 mg/kg i.v.) is 0.046 mg/kg. Besides, in data set [4], it took 15 µg/mL (≈ 36.2 µM) to reach a half-maximal effect (EC50) and the “times less active as regards the spasmolytic activity” value is listed as 2 times.
